Literature values, collected in patent US20120238559A1, “NOVEL COMPOUNDS” (GLAXO GROUP LIMITED, priority 2009, published 2012).
pIC50: −log10 of the molar value.

Key:
[1] = system: neutrophils
[2] = system: Class I PI3-kinases; details: each of the four Class I PI3-kinases; read-out: IC50 against each of the various Class I PI3-kinases
[3] = system: neutrophils; details: treatment of neutrophils; Thelen et al. 1994

Compound | neutrophil migration and superoxide release [1] | pIC50 [2] | fMLP-induced respiratory burst response [3]
O=c1cc(N2CCOCC2)oc2c(-c3ccccc3)cccc12 [LY294002] | block neutrophil migration and superoxide release | – | –
COC[C@H]1OC(=O)c2coc3c2[C@@]1(C)C1=C(C3=O)[C@@H]2CCC(=O)[C@@]2(C)C[C@H]1OC(C)=O [wortmannin] | block neutrophil migration and superoxide release | 8.00 to 9.00 | prevents the fMLP-induced respiratory burst response
